Measurements published in patent publication US9040458B2, “Safening composition of 6-(trisubstituded phenyl)-4-amino-2-pyridinecarboxylate herbicides and cloquintocet-mexyl for cereal crops” (Dow AgroSciences LLC, priority 2008, dated 2015).
Counter-ions that a name gives are not always drawn.

Tests used:
[1] = test system: LAMPU (purple deadnettle); test: Postemergence herbicidal activity, greenhouse, visual injury; type: in vivo, Lamium purpureum; details: applied alone at 35 g/ha; 20-22 d
Protocol: (§1) Seeds of the desired test plant species were planted in Sun Gro MetroMix® 306 planting mixture, which typically has a pH of 6.0 to 6.8 and an organic matter content of about 30 percent, in plastic pots with a surface area of 103.2 square centimeters (cm^2). When required to ensure good germination and healthy plants, a fungicide treatment and/or other chemical or physical treatment was applied. The plants were grown for 7-36 days (d) in a greenhouse with an approximate […] photoperiod which was maintained at about 18° C. during the day and 17° C. during the night. Nutrients and water were added on a regular basis and supplemental lighting was provided with overhead metal halide 1000-Watt lamps as necessary. The plants were employed for testing when they reached the second or third true leaf stage.
(§2) Weighed amounts of esters (methyl) or salts (TEA [triethylammonium], potassium [K]) of 4-amino-3-chloro-6-(4-chloro-2-fluoro-3-methoxyphenyl)pyridine-2-carboxylic acid (Compound 1) were dissolved in a volume of 97:3 volume/volume (v/v) acetone/dimethylsulfoxide (DMSO) to obtain stock solutions. […] The concentrated stock solutions were diluted with an aqueous mixture of 1.5% v/v of Agri-dex crop oil concentrate to provide the appropriate application rates. Compound requirements are based upon a 12 mL application volume at a rate of 187 liters per hectare (L/ha). Stocks solutions of the safeners were prepared following the same procedure. Spray solutions of the safeners and experimental compound mixtures were prepared by adding the appropriate volume of both stock solutions to the appropriate amount of dilution solution to form a 12 mL spray solution with active ingredients in two-way combinations. Formulated compounds were applied to the plant material with an overhead Mandel track sprayer equipped with 8002E nozzles calibrated to deliver 187 L/ha over an application area of 0.503 square meters (m^2) at a spray height of 18 inches (43 centimeters (cm)) above average plant canopy. Control plants were sprayed in the same manner with the solvent blank.
(§3) The treated plants and control plants were placed in a greenhouse as described above and watered by sub-irrigation to prevent wash-off of the test compounds. After 20-22 d, the condition of the test plants as compared with that of the control plants was determined visually and scored on a scale of 0 to 100 percent where 0 corresponds to no injury and 100 corresponds to complete kill.
(§4) Colby's equation was used to determine the herbicidal effects expected from the mixtures (Colby, S. R., Calculation of the synergistic and antagonistic response of herbicide combinations. Weeds 1967, 15, 20-22.).
(§5) The following equation was used to calculate the expected activity of mixtures containing two active ingredients, A and B: Expected=A+B−(A×B/100)
(§6) A=observed efficacy of active ingredient A at the same concentration as used in the mixture.
(§7) B=observed efficacy of active ingredient B at the same concentration as used in the mixture.

[2] = test system: HORVS = Hordeum vulgare (spring barley); test: Postemergence herbicidal safening, greenhouse, visual injury; type: in vivo; details: 20-22 d
Protocol: as §1, §2, §3, §4, §5, §6, §7

[3] = test system: TRZAW = Triticum aestivum (winter wheat); test: as above; type: in vivo; details: applied alone at 140 g/ha; 20-22 d; listed as 1 Methyl Ester
Protocol: as §1, §2, §3, §4, §5, §6, §7

[4] = test system: TRZAS = Triticum aestivum (spring wheat); test: as above; type: in vivo; details: 20-22 d
Protocol: as §1, §2, §3, §4, §5, §6, §7

[5] = test system: PAPRH (corn poppy); test: Postemergence herbicidal activity, greenhouse, visual injury; type: in vivo, Papaver rhoeas; details: applied alone at 35 g/ha; 20-22 d
Protocol: as §1, §2, §3, §4, §5, §6, §7

[6] = test system: GALAP = Galium aparine (cleavers); test: as above; type: in vivo; details: applied alone at 140 g/ha; 20-22 d
Protocol: as §1, §2, §3, §4, §5, §6, §7

[7] = test system: KCHSC = Kochia scoparia (kochia); test: as above; type: in vivo; details: applied alone at 140 g/ha, 20-22 d
Protocol: as §1, §2, §3, §4, §5, §6, §7

[8] = test system: VERPE = Veronica persica (bird's-eye speedwell); test: as above; type: in vivo; details: applied alone at 140 g/ha, 20-22 d
Protocol: as §1, §2, §3, §4, §5, §6, §7

[9] = test system: SASKR = Salsola iberica (Russian thistle); test: as above; type: in vivo; details: applied alone at 140 g/ha, 20-22 d
Protocol: as §1, §2, §3, §4, §5, §6, §7

[10] = test system: VIOTR = Viola tricolor (wild pansy); test: as above; type: in vivo; details: applied alone at 140 g/ha, 20-22 d
Protocol: as §1, §2, §3, §4, §5, §6, §7

[11] = test system: MATCH = Matricaria chamomila (scented mayweed); test: as above; type: in vivo; details: applied alone at 140 g/ha, 20-22 d
Protocol: as §1, §2, §3, §4, §5, §6, §7

[12] = test system: HORVW (winter barley); test: Postemergence herbicidal safening, greenhouse, visual injury; type: in vivo, Hordeum vulgare; details: applied alone at 140 g/ha; 20-22 d; listed as 1 Methyl Ester
Protocol: as §1, with “stage. […]” for “stage.”
as §3, with “kill. […]” for “kill.”

[13] = applied alone at 8.75 g/ha, listed as 1 Methyl Ester
[14] = applied alone at 35 g/ha, listed as 1 Methyl Ester
[15] = applied alone at 35 g/ha, listed as (I) Methyl ester
[16] = applied alone at 140 g/ha, listed as 1 Methyl Ester
[17] = applied alone at 8.75 g/ha, listed as (1) K-salt
[18] = applied alone at 35 g/ha, listed as (1) K-salt
[19] = applied alone at 140 g/ha, listed as (1) K-salt

COc1c(Cl)ccc(-c2cc(N)c(Cl)c(C(=O)O)n2)c1F [Compound 1 Methyl Ester, 4-amino-3-chloro-6-(4-chloro-2-fluoro-3-methoxyphenyl)pyridine-2-carboxylic acid]
LAMPU Ob (observed injury) [1]: 100% | HORVS Ob (observed injury) [2, 13]: 22% | HORVS Ob (observed injury) [2, 14]: 38% | HORVS Ob (observed injury) [2, 15]: 43% | HORVS Ob (observed injury) [2, 16]: 42% | TRZAW Ob (observed injury) [3]: 32% | TRZAS Ob (observed injury) [4, 13]: 13% | TRZAS Ob (observed injury) [4, 14]: 43% | TRZAS Ob (observed injury) [4, 15]: 45% | TRZAS Ob (observed injury) ([4]; applied alone at 70 g/ha, listed as 1 Methyl Ester): 25% | TRZAS Ob (observed injury) [4, 16]: 37% | PAPRH Ob (observed injury) [5]: 97% | GALAP Ob (observed injury) [6]: 100% | KCHSC Ob (observed injury) ([7]; listed as 1 Methyl Ester): 100% | VERPE Ob (observed injury) ([8]; listed as 1 Methyl Ester): 91% | SASKR Ob (observed injury) ([9]; listed as 1 Methyl Ester): 91% | VIOTR Ob (observed injury) ([10]; listed as 1 Methyl Ester): 67% | MATCH Ob (observed injury) ([11]; listed as 1 Methyl Ester): 82% | HORVW Ob (observed injury) [12]: 42%

COc1c(Cl)ccc(-c2cc(N)c(Cl)c(C(=O)O)n2)c1F [Compound (1) K-salt, 4-amino-3-chloro-6-(4-chloro-2-fluoro-3-methoxyphenyl)pyridine-2-carboxylic acid]
HORVS Ob (observed injury) [2, 17]: 25% | HORVS Ob (observed injury) [2, 18]: 38% | HORVS Ob (observed injury) [2, 19]: 45% | TRZAS Ob (observed injury) [4, 17]: 15% | TRZAS Ob (observed injury) [4, 18]: 43% | TRZAS Ob (observed injury) ([4]; applied alone at 70 g/ha, listed as (1) K-salt): 11% | TRZAS Ob (observed injury) [4, 19]: 52% | KCHSC Ob (observed injury) ([7]; listed as (1) K-salt): 100% | VERPE Ob (observed injury) ([8]; listed as (1) K-salt): 87% | SASKR Ob (observed injury) ([9]; listed as (1) K-salt): 87% | VIOTR Ob (observed injury) ([10]; listed as (1) K-salt): 63% | MATCH Ob (observed injury) ([11]; listed as (1) K-salt): 88%
